Assay results as given in patent US12612409B2, “Pyrrolopyrimidines as CFTR potentiators” (Cystic Fibrosis Foundation, priority 2016, dated 2026).
pEC50: −log10 of the molar value.

target: T1, recombinant F508del V470 CFTR in Fischer rat thyroid (FRT) cells (Homo sapiens, UniProt P13569, DEL508-508); assay: FRT ion flux assay of F508del CFTR potentiation; format: cell-based; conditions: FRT cells expressing F508del V470 CFTR, forskolin 20 uM, 27° C. pre-incubation
T1 construct: expressed in transfected cells
Description: FRT Ion Flux Assay of F508del CFTR Potentiation
Fischer rat thyroid (FRT) cell lines stably expressing recombinant F508del V470 CFTR and halide-sensitive yellow fluorescent protein (Pedemonte et al., J. Clin. Invest. 115(9) 2564-71 (2005)) were seeded at 25,000 cells/well in 50 uL/well of culture medium into black-walled, clear bottom tissue-culture-treated 384-well plates (Corning, cat. no. 3712). After one day, the cells were pre-incubated at 27° C./5% CO2 for 16-24 hours. The cells were then washed with dPBS and treated with forskolin (20 uM) and test compound for 30 mi by addition of 20 uL of compound dilution buffer (dPBS containing forskolin and test compound). Plates were loaded into FLIPR384 fluorescence imaging plate reader (Molecular Devices). After an initial fluorescence reading, iodide buffer (25 uL) (composition (in mM): 137 NaI, 1.5 K2PO4, 8.1 NaH2PO4, 2.7 KCl, 0.5 MgCl2, 1 CaCl2) was added and a second fluorescence reading was made after approximately 21 seconds. Data treatment involved division of the second fluorescence reading by the initial fluorescence reading, then scaling of the resulting normalized endpoint fluorescence with respect to the responses for DMSO (0%) and a positive control potentiator (100%).

T1 sequence (P13569 with tags, fused parts or gaps DEL508-508): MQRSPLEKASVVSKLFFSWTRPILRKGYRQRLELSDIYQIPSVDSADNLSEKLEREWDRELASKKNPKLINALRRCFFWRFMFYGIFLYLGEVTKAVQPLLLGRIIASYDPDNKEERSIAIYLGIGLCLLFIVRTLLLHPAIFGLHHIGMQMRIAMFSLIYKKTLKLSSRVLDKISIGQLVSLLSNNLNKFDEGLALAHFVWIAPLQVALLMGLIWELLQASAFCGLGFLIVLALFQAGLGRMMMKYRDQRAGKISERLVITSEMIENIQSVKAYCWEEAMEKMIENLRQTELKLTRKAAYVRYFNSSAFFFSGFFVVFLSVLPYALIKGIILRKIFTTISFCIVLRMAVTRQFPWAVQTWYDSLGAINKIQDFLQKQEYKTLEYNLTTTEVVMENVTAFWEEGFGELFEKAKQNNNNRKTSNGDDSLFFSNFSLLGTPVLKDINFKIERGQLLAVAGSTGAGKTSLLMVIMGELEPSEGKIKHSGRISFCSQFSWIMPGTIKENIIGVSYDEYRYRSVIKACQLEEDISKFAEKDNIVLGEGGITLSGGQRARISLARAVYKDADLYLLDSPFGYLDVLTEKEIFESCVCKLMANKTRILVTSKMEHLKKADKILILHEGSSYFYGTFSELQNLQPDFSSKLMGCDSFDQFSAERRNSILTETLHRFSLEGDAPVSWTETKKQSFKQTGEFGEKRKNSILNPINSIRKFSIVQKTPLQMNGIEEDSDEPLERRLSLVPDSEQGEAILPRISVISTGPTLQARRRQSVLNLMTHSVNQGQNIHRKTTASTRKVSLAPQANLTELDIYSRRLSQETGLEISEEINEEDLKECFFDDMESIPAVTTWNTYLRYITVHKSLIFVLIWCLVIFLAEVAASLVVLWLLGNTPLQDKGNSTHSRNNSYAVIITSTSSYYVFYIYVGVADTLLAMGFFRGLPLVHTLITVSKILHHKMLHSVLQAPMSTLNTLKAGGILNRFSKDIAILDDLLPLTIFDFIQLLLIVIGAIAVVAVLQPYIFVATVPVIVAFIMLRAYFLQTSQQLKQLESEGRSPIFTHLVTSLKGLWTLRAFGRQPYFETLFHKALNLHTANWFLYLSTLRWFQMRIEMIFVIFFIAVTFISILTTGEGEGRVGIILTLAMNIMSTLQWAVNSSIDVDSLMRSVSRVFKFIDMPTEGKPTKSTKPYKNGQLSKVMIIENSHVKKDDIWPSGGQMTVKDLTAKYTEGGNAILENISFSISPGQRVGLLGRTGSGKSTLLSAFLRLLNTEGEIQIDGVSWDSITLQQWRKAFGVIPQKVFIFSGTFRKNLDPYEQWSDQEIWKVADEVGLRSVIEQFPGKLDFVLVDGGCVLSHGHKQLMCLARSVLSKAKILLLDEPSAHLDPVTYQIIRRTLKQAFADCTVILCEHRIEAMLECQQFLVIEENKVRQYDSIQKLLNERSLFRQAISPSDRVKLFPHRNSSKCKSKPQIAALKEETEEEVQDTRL

Q: How did the pEC50 turn out when `CCC(c1nnn(-c2ccc(F)cc2F)c1C)n1cc(-c2cnc(C(F)(F)F)nc2)c2c(N)ncnc21` (single isomer, unassigned) [Example 190] was run?
A: 6.34

Q: How did the pEC50 turn out when `CCC(c1cn(-c2ccccc2F)nn1)n1cc(-c2cc[nH]n2)c2c(N)ncnc21` (single isomer, unassigned; enantiomer 1) [Example 147, 7-{1-[1-(2-Fluorophenyl)-1H-1,2,3-triazol-4-yl]propyl}-5-(1H-pyrazol-3-yl)-7H-pyrrolo[2,3-d]pyrimidin-4-amine, enantiomer 1] was run?
A: 6.32

Q: `CC(c1cn(-c2ccccc2F)nn1)n1cc(-c2cc[nH]n2)c2c(N)ncnc21` (single isomer, unassigned; enantiomer 2) [Example 122, 7-{1-[1-(2-Fluorophenyl)-1H-1,2,3-triazol-4-yl]ethyl}-5-(1H-pyrazol-3-yl)-7H-pyrrolo[2,3-d]pyrimidin-4-amine, enantiomer 2] was tested. Which pEC50 did it give?
A: 5.98

Q: With `CC(c1cn(-c2ccc(F)cc2F)nn1)n1cc(-c2cnc(C(F)(F)F)nc2)c2c(N)ncnc21` (single isomer, unassigned; enantiomer 2) [Example 124, 7-{1-[1-(2,4-Difluorophenyl)-1H-1,2,3-triazol-4-yl]ethyl}-5-[2-(trifluoromethyl)pyrimidin-5-yl]-7H-pyrrolo[2,3-d]pyrimidin-4-amine, enantiomer 2] as the compound, how does the pEC50 read?
A: 5.91

Q: `CCC(c1cn(-c2ccccc2F)nn1)n1cc(-c2cnc(C(F)F)nc2)c2c(N)ncnc21` (single isomer, unassigned; enantiomer 2) [Example 144, 5-[2-(Difluoromethyl)pyrimidin-5-yl]-7-{1-[1-(2-fluorophenyl)-1H-1,2,3-triazol-4-yl]propyl}-7H-pyrrolo[2,3-d]pyrimidin-4-amine, enantiomer 2] was tested. Which pEC50 did it give?
A: 6.14

Q: How did the pEC50 turn out when `CCC(c1cn(-c2ccccc2F)nn1)n1cc(-c2cnc(N(C)C)nc2)c2c(N)ncnc21` (single isomer, unassigned; enantiomer 2) [Example 146, 5-[2-(Dimethylamino)pyrimidin-5-yl]-7-{1-[1-(2-fluorophenyl)-1H-1,2,3-triazol-4-yl]propyl}-7H-pyrrolo[2,3-d]pyrimidin-4-amine, enantiomer 2] was run?
A: 5.93

Q: With `CCC(c1c[nH]c(-c2ccc(F)cc2F)n1)n1cc(-c2cnc(C(F)(F)F)nc2)c2c(N)ncnc21` (single isomer, unassigned; enantiomer 2) [Example 178, 7-{1-[2-(2,4-Difluorophenyl)-2H-imidazol-4-yl]propyl}-5-[2-(trifluoromethyl)pyrimidin-5-yl]-7H-pyrrolo[2,3-d]pyrimidin-4-amine, enantiomer 2] as the compound, how does the pEC50 read?
A: 6.07

Q: With `Cc1c(C(C)n2cc(-c3cnc(C(F)(F)F)nc3)c3c(N)ncnc32)nnn1-c1ccccc1F` (single isomer, unassigned; enantiomer 2) [Example 180, 7-{1-[1-(2-Fluorophenyl)-5-methyl-1H-1,2,3-triazol-4-yl]ethyl}-5-[2-(trifluoromethyl)pyrimidin-5-yl]-7H-pyrrolo[2,3-d]pyrimidin-4-amine, enantiomer 2] as the compound, how does the pEC50 read?
A: 5.72

Q: How did the pEC50 turn out when `CCC(c1cn(-c2ccc(OC)nc2)nn1)n1cc(-c2cnc(C(F)(F)F)nc2)c2c(N)ncnc21` (single isomer, unassigned; enantiomer 2) [Example 310, 7-{1-[1-(6-Methoxypyridin-3-yl)-1H-1,2,3-triazol-4-yl]propyl}-5-[2-(trifluoromethyl)pyrimidin-5-yl]-7H-pyrrolo[2,3-d]pyrimidin-4-amine, enantiomer 2] was run?
A: 5.89

Q: With `CC(c1cnc(-c2ccccc2F)[nH]1)n1cc(-c2cccc3ccncc23)c2c(N)ncnc21` (centres unmarked) [Example 61, 7-{1-[2-(2-Fluorophenyl)-1H-imidazol-5-yl]ethyl}-5-(isoquinolin-8-yl)-7H-pyrrolo[2,3-d]pyrimidin-4-amine] as the compound, how does the pEC50 read?
A: 5.83

Q: With `CC(c1cnc(-c2ccccc2F)[nH]1)n1cc(-c2cnc3[nH]ccc3c2)c2c(N)ncnc21` (centres unmarked) [Example 62, 7-{1-[2-(2-Fluorophenyl)-1H-imidazol-5-yl]ethyl}-5-(7H-pyrrolo[2,3-b]pyridin-5-yl)-7H-pyrrolo[2,3-d]pyrimidin-4-amine] as the compound, how does the pEC50 read?
A: 5.65
